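Protocol summary: plate cells (96-well), add compound at 5 concentrations, incubate 48 h, interpolate endpoints linearly. GI50 is the concentration that inhibits growth by half.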 Calls of active or inactive are those of the source. No stated cut-off is given here; in the data, active = GI50 up to about 1.1 µM and inactive = higher. *1 amine or outer side, *2 acyl side, *3 side chain or, on linkers, in order; H or OH if unused. Where a SMILES comes first, the peptide text is derived from it. Bridges are numbered along the chain shown (N, C = ends). Roman numbers before positions name the chains, in order. [ ]: non-standard residue; d: D form. Actinocin(1to9) = Cc1c2oc3c(C)ccc(C(=O)[*:2])c3nc-2c(C(=O)[*:1])c(N)c1=O; NMeV = CN[CH](C(=O)O)C(C)C; Sar = CNCC(=O)O
Key:
Assay in all cases: NCI tumour cell line growth inhibition, 48 h
[1] = system: SR
[2] = system: SK-OV-3
[3] = system: KM12
[4] = system: SW-620
[5] = system: MDA-N
[6] = system: SK-MEL-2
[7] = system: HCC 2998
[8] = system: MCF7
[9] = system: TK-10
[10] = system: COLO 205
[11] = system: CCRF-CEM
[12] = system: HOP-62
[13] = system: HCT-116
[14] = system: SNB-19
[15] = system: SF-295
[16] = system: OVCAR-5
[17] = system: SK-MEL-5
[18] = system: SNB-75
[19] = system: NCI-H23
[20] = system: HT-29
[21] = system: NCI/ADR-RES
[22] = system: RPMI-8226
[23] = system: NCI-H460
[24] = system: SK-MEL-28
[25] = system: ACHN
[26] = system: OVCAR-3
[27] = system: UACC-62
[28] = system: MOLT-4
[29] = system: HL-60
[30] = system: MDA-MB-231
[31] = system: SF-268
[32] = system: Malme-3M
[33] = system: NCI-H522
[34] = system: UACC-257
[35] = system: SF-539
[36] = system: BT-549
[37] = system: CAKI-1
[38] = system: A498
[39] = system: MDA-MB-435
[40] = system: OVCAR-8
[41] = system: U-251
[42] = system: SN12C
[43] = system: NCI-H226
[44] = system: LOX IMVI
[45] = system: K562
[46] = system: UO-31
[47] = system: 786-0
[48] = system: OVCAR-4
[49] = system: PC-3
[50] = system: IGROV-1
[51] = system: EKVX
[52] = system: RXF 393
[53] = system: M14
[54] = system: Hs-578T
[55] = system: A549
[56] = system: DU-145
[57] = system: HCT-15
[58] = system: T47D

## COc1ccc(CC2NC(=O)C(NC(=O)c3c4nc5c(C(=O)NC6C(=O)NC(Cc7ccc(OC)cc7)C(=O)N7CCCC7C(=O)N(C)CC(=O)N(C)C(C(C)C)C(=O)OC6C)ccc(C)c5oc-4c(C)c(=O)c3N)C(C)OC(=O)C(C(C)C)N(C)C(=O)CN(C)C(=O)C3CCCN3C2=O)cc1 (stereo not drawn) (I: TY(Me)P[Sar][NMeV] / II: TY(Me)P[Sar][NMeV]; ester I:1-I:C, II:1-II:C; linker I:N-II:N via Actinocin(1to9); configuration not given here)
[1]
  GI50: < 1 nM (active)
[2]
  GI50: 11.6 nM (active)
[3]
  GI50: < 1 nM (active)
[4]
  GI50: < 1 nM (active)
[5]
  GI50: < 1 nM (active)
[6]
  GI50: 15 nM (active)
[7]
  GI50: 1.2 nM (active)
[8]
  GI50: < 1 nM (active)
[9]
  GI50: 35.1 nM (active)
[10]
  GI50: < 1 nM (active)
[11]
  GI50: < 1 nM (active)
[12]
  GI50: 6.81 nM (active)
[13]
  GI50: < 1 nM (active)
[14]
  GI50: < 1 nM (active)
[15]
  GI50: 10 nM (active)
[16]
  GI50: 2.67 nM (active)
[17]
  GI50: < 1 nM (active)
[18]
  GI50: 1.09 nM (active)
[19]
  GI50: 1.47 nM (active)
[20]
  GI50: < 1 nM (active)
[21]
  GI50: 480 nM (active)
[22]
  GI50: < 1 nM (active)
[23]
  GI50: < 1 nM (active)
[24]
  GI50: < 1 nM (active)
[25]
  GI50: < 1 nM (active)
[26]
  GI50: 12.3 nM (active)
[27]
  GI50: < 1 nM (active)
[28]
  GI50: < 1 nM (active)
[29]
  GI50: < 1 nM (active)
[30]
  GI50: 37.1 nM (active)
[31]
  GI50: 21.9 nM (active)
[32]
  GI50: < 1 nM (active)
[33]
  GI50: < 1 nM (active)
[34]
  GI50: < 1 nM (active)
[35]
  GI50: < 1 nM (active)
[36]
  GI50: 10 nM (active)
[37]
  GI50: 8.69 nM (active)
[38]
  GI50: 2.99 nM (active)
[39]
  GI50: < 1 nM (active)
[40]
  GI50: < 1 nM (active)
[41]
  GI50: < 1 nM (active)
[42]
  GI50: < 1 nM (active)
[43]
  GI50: 13.5 nM (active)
[44]
  GI50: < 1 nM (active)
[45]
  GI50: < 1 nM (active)
[46]
  GI50: 8.22 nM (active)
[47]
  GI50: 14.1 nM (active)
[48]
  GI50: 48.5 nM (active)
[49]
  GI50: < 1 nM (active)
[50]
  GI50: < 1 nM (active)
[51]
  GI50: 164 nM (active)
[52]
  GI50: 10 nM (active)
[53]
  GI50: 6.78 nM (active)
[54]
  GI50: 22 nM (active)
[55]
  GI50: < 1 nM (active)
[56]
  GI50: < 1 nM (active)
[57]
  GI50: 57.9 nM
[58]
  GI50: < 1 nM (active)
